Assay results from PubChem BioAssay (NCI).
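Where inhibition never reached the appropriate level, the endpoint shown equals the highest concentration tested. Otherwise, values were interpolated linearly from a five-concentration, 48-hour dose response in 96-well plates. TGI: total growth inhibition.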

Legend:
Test in all cases: NCI tumour cell line growth inhibition, 48 h
SW-620 colon = test system: SW-620 colon
OVCAR-5 ovarian = test system: OVCAR-5 ovarian
KM12 colon = test system: KM12 colon
UO-31 renal = test system: UO-31 renal
NCI-H522 lung = test system: NCI-H522 lung
OVCAR-4 ovarian = test system: OVCAR-4 ovarian
SNB-19 CNS = test system: SNB-19 CNS
NCI-H23 lung = test system: NCI-H23 lung
A498 renal = test system: A498 renal
SF-268 CNS = test system: SF-268 CNS
ACHN renal = test system: ACHN renal
MALME-3M melanoma = test system: MALME-3M melanoma
PC-3 prostate = test system: PC-3 prostate
SF-539 CNS = test system: SF-539 CNS
MDA-MB-435 = test system: MDA-MB-435
K-562 leukemia = test system: K-562 leukemia
IGROV1 ovarian = test system: IGROV1 ovarian
SK-MEL-5 melanoma = test system: SK-MEL-5 melanoma
UACC-62 melanoma = test system: UACC-62 melanoma
CCRF-CEM leukemia = test system: CCRF-CEM leukemia
BT-549 breast = test system: BT-549 breast
M14 melanoma = test system: M14 melanoma
HL-60(TB) leukemia = test system: HL-60(TB) leukemia
OVCAR-8 ovarian = test system: OVCAR-8 ovarian
MDA-N = test system: MDA-N
SK-OV-3 ovarian = test system: SK-OV-3 ovarian
NCI/ADR-RES ovarian = test system: NCI/ADR-RES ovarian
SNB-75 CNS = test system: SNB-75 CNS
SR leukemia = test system: SR leukemia
HOP-62 NSCLC = test system: HOP-62 NSCLC
SN12C renal = test system: SN12C renal
DU-145 prostate = test system: DU-145 prostate
TK-10 renal = test system: TK-10 renal
SF-295 CNS = test system: SF-295 CNS
RPMI-8226 leukemia = test system: RPMI-8226 leukemia
SK-MEL-2 melanoma = test system: SK-MEL-2 melanoma
HOP-92 NSCLC = test system: HOP-92 NSCLC
OVCAR-3 ovarian = test system: OVCAR-3 ovarian
HCT-15 colon = test system: HCT-15 colon
HS 578T breast = test system: HS 578T breast
LOX IMVI melanoma = test system: LOX IMVI melanoma
MCF7 breast = test system: MCF7 breast
MOLT-4 leukemia = test system: MOLT-4 leukemia
SK-MEL-28 melanoma = test system: SK-MEL-28 melanoma
HT29 colon = test system: HT29 colon
A549 NSCLC = test system: A549 NSCLC
NCI-H460 lung = test system: NCI-H460 lung
CAKI-1 renal = test system: CAKI-1 renal
MDA-MB-231 breast = test system: MDA-MB-231 breast
HCC-2998 colon = test system: HCC-2998 colon
U251 CNS = test system: U251 CNS
HCT-116 colon = test system: HCT-116 colon
786-0 renal = test system: 786-0 renal
T-47D breast = test system: T-47D breast
UACC-257 melanoma = test system: UACC-257 melanoma
RXF 393 renal = test system: RXF 393 renal
EKVX NSCLC = test system: EKVX NSCLC
COLO 205 colon = test system: COLO 205 colon
NCI-H226 lung = test system: NCI-H226 lung

Q: What does the source list for O=c1oc2ccc3ccccc3c2cc1-c1nc2ccccc2o1?
A: TGI (SW-620 colon): 55.1 µM; TGI (OVCAR-5 ovarian): > 100 µM; TGI (KM12 colon): > 63.2 µM; TGI (UO-31 renal): > 54.8 µM; TGI (NCI-H522 lung): 59.4 µM; TGI (OVCAR-4 ovarian): 90.4 µM; TGI (SNB-19 CNS): > 46.6 µM; TGI (NCI-H23 lung): > 63.3 µM; TGI (A498 renal): > 77.5 µM; TGI (SF-268 CNS): 48.4 µM; TGI (ACHN renal): 29.9 µM; TGI (MALME-3M melanoma): 26.5 µM; TGI (PC-3 prostate): > 74.9 µM; TGI (SF-539 CNS): 29.3 µM; TGI (MDA-MB-435): > 60.6 µM; TGI (K-562 leukemia): > 100 µM; TGI (IGROV1 ovarian): 30 µM; TGI (SK-MEL-5 melanoma): 58.8 µM; TGI (UACC-62 melanoma): > 100 µM; TGI (CCRF-CEM leukemia): > 100 µM; TGI (BT-549 breast): > 61.4 µM; TGI (M14 melanoma): > 56 µM; TGI (HL-60(TB) leukemia): > 100 µM; TGI (OVCAR-8 ovarian): 51.2 µM; TGI (MDA-N): > 54.4 µM; TGI (SK-OV-3 ovarian): > 54.4 µM; TGI (NCI/ADR-RES ovarian): 51.7 µM; TGI (SNB-75 CNS): 40.7 µM; TGI (SR leukemia): > 85.6 µM; TGI (HOP-62 NSCLC): > 52.1 µM; TGI (SN12C renal): > 64.1 µM; TGI (DU-145 prostate): > 52.3 µM; TGI (TK-10 renal): > 100 µM; TGI (SF-295 CNS): > 59.3 µM; TGI (RPMI-8226 leukemia): > 63.4 µM; TGI (SK-MEL-2 melanoma): 60.1 µM; TGI (HOP-92 NSCLC): 39.3 µM; TGI (OVCAR-3 ovarian): 32.4 µM; TGI (HCT-15 colon): > 100 µM; TGI (HS 578T breast): > 68.8 µM; TGI (LOX IMVI melanoma): 32.8 µM; TGI (MCF7 breast): 20.5 µM; TGI (MOLT-4 leukemia): > 79 µM; TGI (SK-MEL-28 melanoma): > 59.2 µM; TGI (HT29 colon): 48.4 µM; TGI (A549 NSCLC): > 55.2 µM; TGI (NCI-H460 lung): > 100 µM; TGI (CAKI-1 renal): 40.8 µM; TGI (MDA-MB-231 breast): 35.6 µM; TGI (HCC-2998 colon): > 100 µM; TGI (U251 CNS): 53.1 µM; TGI (HCT-116 colon): > 53.6 µM; TGI (786-0 renal): 42.2 µM; TGI (T-47D breast): 39.7 µM; TGI (UACC-257 melanoma): 99.2 µM; TGI (RXF 393 renal): 34.4 µM; TGI (EKVX NSCLC): > 56.2 µM; TGI (COLO 205 colon): > 100 µM; TGI (NCI-H226 lung): > 63.6 µM
